# Experimental data published in patent US12702654B2, “Compositions and methods for treating homocystinuria and other conditions using polyamines” (THE REGENTS OF THE UNIVERSITY OF COLORADO, priority 2020, dated 2026).
# Entries after “also recorded” stand apart in the source; their conditions may differ. Where two headings read alike, the source gives them in different places.
# Legend:
# HO HCU mice [1] = assay: Hepatic metabolomic analysis / hepatic 5-methylTHF in HO HCU mice; format: in vivo, mouse
# Text: As illustrated in one example, see FIG. 2, HCU (HO) induced a significant accumulation of hepatic 5-methyl-THF which by sequestering one carbon units had the potential to decrease the available pool of THF available to the betaine pathway for lowering Hcy. FIG. 2 illustrates an example of hepatic metabolomic analysis of HO and WT controls compared to an HO mouse treated with betaine. Comparative hepatic metabolomic analysis of HO mice and WT controls illustrated about a 10-fold accumulation in the MTHFR product 5-MeTHF. Betaine treatment alone reduced 5-MeTHF by about 15-25%. Data illustrated in FIG. 2 was derived from the livers of 8 (4 male, 4 female) individual HO or WT or HO Betaine mice per group. Betaine was given at 2% w/v in drinking water given ad libitum. P<0.0001 vs WT.
# A comparative reference data set was generated for these mice by examining plasma levels of tHcy, methionine, cysteine, serine, glycine, dimethylglycine, methylglycine (MG, SAM and SAH). In brief, determination of plasma levels of amino acids relevant to the methionine cycle were determined using methods similar to those described in Stabler et al., Blood. 81 (1993) 3404-3413, incorporated in its entirety herein. Determination of hepatic 5-methylTHF was performed by liquid chromatography-tandem mass spectrometry using methods similar to those described in Witham et al., PLoS One. 8 (2013) e77923, incorporated in its entirety herein. The global metabolomic analysis of methionine and folate cycle related metabolites was carried out by Metabolon, Inc. Briefly, sample preparation was performed utilizing the automated MicroLab STAR® system. Sample preparation was performed using a proprietary series of organic and aqueous extractions to remove the protein fraction while allowing maximum recovery of small molecules. The resulting extract was divided into two fractions: one for analysis by liquid chromatography and one for analysis by gas chromatography. Each sample was then frozen and dried under vacuum. The LC/mass spectrometer portion of the platform was based on a Waters ACQUITY UPLC and a Thermo-Finnigan LTQ mass spectrometer, which consisted of an electrospray ionization source and linear ion-trap mass analyzer. Samples were analyzed on a Thermo-Finnigan Trace DSQ fast-scanning single-quadrupole mass spectrometer using electron impact ionization. Identification of known chemical entities was based on comparison to library entries of authenticated standards. Tissue polyamines putrescine, spermidine and spermine and 5-methylthioadenosine (MTA) were determined by liquid chromatography-tandem mass spectrometry using methods similar to those described in Stevens et al., J Chromatogr A 1217 (2010) 3282-3288, incorporated in its entirety herein.
# DHFR = assay: Western blotting of hepatic DHFR protein levels; format: in vivo, mouse; details: HO mice, betaine treated; not restored to control levels
# Procedure: In other exemplary experiments, levels of DHFR were assessed using the HO mouse model in untreated and betaine treated mice. […] In addition, level of intensity of DHFR for wild type (WT), treated (HO+betaine) and untreated mice (HO) using the HCU mouse model was examined (FIG. 4B). It was noted that the level of DHFR in betaine treated mice was not restored to control levels and only about a 5-10% improvement was observed (FIG. 4B). (See FIGS. 4A-4B). As noted herein, Western blotting analysis of hepatic DHFR protein levels in WT and HO HCU mice. N=9 per group.
# SAHH = assay: Western blotting of hepatic SAHH expression; format: in vivo, mouse; details: HO mice, 30 g/l in drinking water ad libitum, one week
# Procedure: To investigate the effects of these treatments upon the hepatic regulatory changes in enzyme expression induced by HCU, the human transgenic HO mouse model of HCU was used. In brief, experimental groups consisting of 8 HO mice on a C57BL/6J background and 8 C57BL/6J WT littermate control mice bred in house were used. Mice in both groups were male and aged between 3 and 4 months. Except where otherwise stated, all mice were maintained on standard chow. All diets were administered using a paired-feeding design to ensure isocaloric intake between all experimental groups and body weights were measured once per week. There was no significant difference in body weight between mice in any of the experimental groups. Betaine and taurine were in this example, both administered by dissolving these compounds in drinking water at 30 g/l ([…] 3% w/v) and were supplied ad libitum for one week. Treatment water was replenished twice per week.
# Western blotting analysis of SAHH, MTHFR and SHMT2 expression was performed in liver samples from HO mice in the presence and absence of betaine or taurine treatment.
# BHMT = assay: Hepatic BHMT protein during long-term betaine treatment; format: in vivo, mouse
# HO HCU mice [2] = assay: Tail bleeding time / hypercoagulative phenotype in HO HCU mice; format: in vivo, mouse
# Procedure: In another exemplary method, effect of polyamines (e.g. spermidine and spermine) on the hypercoagulative phenotype induced by HCU was assessed which is a measure of treatment for genetic HCU where rapid coagulation is a side effect of these conditions. In brief, mice containing both the human CBS transgene and no functional copy of the mouse equivalent gene were identified by PCR from the litters of progeny of 11181×MKO^+/− F1 mice backcrossed to MKO^+/− mice. These mice were designated as “human only” (HO) mice and used as a human model of HCU. […] In order to further investigate the possible therapeutic potential of polyamine (e.g. spermidine and spermine) therapy in HCU, WT and HO HCU mice were given either: […]; […] in drinking water given ad libitum; or drinking water (untreated, control). After one week, tail bleeding times were determined for untreated wild type (WT) control B6 mice and HO HCU mice from all treatment groups.
# ApoA-1 = ApoA-1 expression in HO model; format: in vivo, mouse; details: one-week treatment protocol
# Procedure: In another exemplary method, the transsulfuration pathway and methionine-folate cycle pathways, as show in the sematic illustrated in FIG. 18A, were assessed. In brief, three experimental groups (n=8 for each group) of male mice consisting of either untreated WT controls or HO HCU mice in the presence or absence of betaine treatment. Betaine was administered by dissolving the compound in drinking water at 30 g/l and was supplied ad libitum to the mice for one week. Treatment water was replenished twice per week.
# HO HCU mice [3] = details: earlier study, cited from earlier work
# [4] = HO HCU mice, one week of betaine treatment
smiles,measurement,setting,value
"C[N+](C)(C)CC(=O)O [betaine, N,N,N-trimethylglycine]",HCU-induced decrease in hepatic N-acetylcysteine,HO HCU mice [1]; [4],reversed
same,HCU-induced decrease in hepatic cysteine,HO HCU mice [1]; [4],reversed
same,hepatic N-acetylserine,HO HCU mice [1]; [4],Neither of these metabolites were significantly altered
same,hepatic SAH,HO HCU mice [1]; [4],did not change significantly
same,hepatic SAM,HO HCU mice [1]; [4],did not change significantly
same,hepatic methionine compared to untreated HO mice,HO HCU mice [1]; [4],no detectable effect
same,hepatic serine,HO HCU mice [1]; [4],Neither of these metabolites were significantly altered
same,increase of hepatic DMG,HO HCU mice [1]; [4],3 to 4 fold
same,increase of hepatic MG,HO HCU mice [1]; [4],3 to 4 fold
same,lowering of hepatic N-acetlymethionine compared to untreated HO HCU mice,HO HCU mice [1]; [4],23%
same,lowering of hepatic tHcy,HO HCU mice [1]; [4],approximately 20%
same,reduction of hepatic 5-MeTHF,"HO HCU mice [1]; HO mice, betaine 2% w/v in drinking water ad libitum",15-25%
same,improvement of hepatic DHFR level,DHFR,5-10%
same,HCU-mediated induction of hepatic SAHH expression,SAHH,completely reversed
same,BHMT protein levels,BHMT,significantly higher levels of BHMT protein
same,BHMT as share of total hepatic protein,BHMT; approximately 2% without,8-10%
same,hypercoagulative phenotype,HO HCU mice [2]; betaine treatment (one week),significant amelioration of the hypercoagulative phenotype; also recorded: responded to betaine treatment
same,coagulation phenotype,HO HCU mice [2]; prolonged betaine treatment,reversion to a hypercoagulative phenotype
same,ApoA-1 expression,ApoA-1,increase ApoA-1 expression
same,hypercoagulative phenotype after a longer period of treatment,"HO HCU mice [3]; HCU mice, longer period of betaine treatment",return to the hypercoagulative phenotype
same,hypercoagulative phenotype,"HO HCU mice [3]; mouse model of HCU, betaine treatment",significantly ameliorated the hypercoagulative phenotype
